From patent publication US20240319212A1, “METHOD OF MEASURING THE ENDOCYTIC VITAMIN D STATUS” (Immundiagnostik AG, priority 2018, published 2024)
Entries after “also recorded” stand apart in the source; their conditions may differ.

Tests used:
megalin M2 fragment = target: T1, megalin M2 fragment (Homo sapiens, UniProt P02774+P98164); test: Microscale thermophoresis of DBP:VD-metabolite bound by megalin M2 fragment; type: binding; settings: M2 titrated; for Kd: labelled DBP 50 nM mixed with metabolite 37.8 nM, read-out: dissociation constant Kd, megalin M2 fragment to complex DBP:vitamin D metabolite
T1 construct: megalin signal peptide (M1-G25) (N, cleaved yes); made in house
T1 sequence (P98164 1024-1429 limits assumed): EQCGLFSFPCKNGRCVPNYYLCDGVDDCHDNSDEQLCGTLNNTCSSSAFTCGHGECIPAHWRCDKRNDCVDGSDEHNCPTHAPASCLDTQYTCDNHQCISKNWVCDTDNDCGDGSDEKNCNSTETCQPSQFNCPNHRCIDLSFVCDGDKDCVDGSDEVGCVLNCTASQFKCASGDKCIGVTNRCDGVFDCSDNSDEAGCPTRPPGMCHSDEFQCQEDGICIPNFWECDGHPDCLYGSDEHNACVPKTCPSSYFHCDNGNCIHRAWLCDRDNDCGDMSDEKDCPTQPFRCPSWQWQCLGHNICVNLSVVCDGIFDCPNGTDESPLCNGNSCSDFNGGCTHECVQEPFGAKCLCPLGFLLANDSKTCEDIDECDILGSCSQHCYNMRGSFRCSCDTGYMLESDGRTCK
T1 sequence (P02774 17-474): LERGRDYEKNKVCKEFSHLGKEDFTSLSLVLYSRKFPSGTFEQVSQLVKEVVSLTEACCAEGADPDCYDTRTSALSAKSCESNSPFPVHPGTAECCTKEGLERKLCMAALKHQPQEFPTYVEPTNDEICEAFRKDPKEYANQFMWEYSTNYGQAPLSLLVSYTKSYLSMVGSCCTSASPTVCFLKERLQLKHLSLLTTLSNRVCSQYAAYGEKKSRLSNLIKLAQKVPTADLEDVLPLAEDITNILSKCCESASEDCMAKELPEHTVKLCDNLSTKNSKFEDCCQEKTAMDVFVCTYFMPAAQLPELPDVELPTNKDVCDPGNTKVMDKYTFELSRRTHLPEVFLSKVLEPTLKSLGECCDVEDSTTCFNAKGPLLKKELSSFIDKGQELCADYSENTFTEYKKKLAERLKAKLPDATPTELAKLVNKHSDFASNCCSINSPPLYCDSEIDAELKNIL
Experimental: Purified megalin M2 was titrated in different concentrations. The dissociation constant Kd was calculated for every condition. The binding affinity was assessed by the dissociation constant Kd.
(§1) Microscale Thermophoresis assay. […] Parameters: laser power, 100%; LED, 80; laser on-time, 30 seconds; laser off-time, 5 seconds; temperature, 25° C. FNorm: normalized fluorescence; Kd: dissociation constant.

DBP [1] = target: T2, DBP (Homo sapiens, UniProt P02774); test: Microscale thermophoresis of DBP and vitamin D metabolites; type: binding; set-up: purchased Merck 345802; settings: for binding affinity of vitamin D metabolite to DBP, in words: MST, comparison between metabolites; for Kd: NT-647 labelled DBP, metabolite titrated, read-out: dissociation constant Kd, DBP to vitamin D metabolite
T2 sequence (P02774 17-474): T1 sequence (P02774 17-474)
Experimental: The binding properties of DBP and 25(OH)VD3, 25(OH)VD2, 24,25(OH)VD and 3C-epimer of 25(OH)D3 on the one hand and megalin on the other was further examined using microscale thermophoresis. […] The vitamin D metabolites were titrated with different concentrations. The dissociation constant Kd was calculated for every interaction partner. The binding affinity was assessed via the obtained dissociation constant Kd.
as §1

albumin = albumin (Homo sapiens, UniProt P02768); settings: cited from earlier work
albumin, sequence (P02768 25-609, species assumed): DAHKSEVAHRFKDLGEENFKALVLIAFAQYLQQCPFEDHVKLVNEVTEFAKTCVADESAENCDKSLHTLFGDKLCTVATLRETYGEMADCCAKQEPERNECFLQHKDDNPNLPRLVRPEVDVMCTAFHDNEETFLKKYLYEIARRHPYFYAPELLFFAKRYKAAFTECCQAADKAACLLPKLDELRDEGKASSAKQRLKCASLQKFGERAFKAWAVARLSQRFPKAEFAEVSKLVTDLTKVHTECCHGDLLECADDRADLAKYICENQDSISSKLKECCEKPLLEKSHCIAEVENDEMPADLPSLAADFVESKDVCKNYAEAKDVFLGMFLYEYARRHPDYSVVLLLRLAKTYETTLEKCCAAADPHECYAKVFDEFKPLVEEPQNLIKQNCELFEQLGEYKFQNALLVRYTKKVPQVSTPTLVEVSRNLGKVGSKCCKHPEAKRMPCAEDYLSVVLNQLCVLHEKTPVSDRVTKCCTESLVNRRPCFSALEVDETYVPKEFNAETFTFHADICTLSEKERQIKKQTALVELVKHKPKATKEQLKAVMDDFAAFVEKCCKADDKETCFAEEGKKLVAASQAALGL

DBP [2] = target: T2, DBP; settings: cited from earlier work

| Compound | Kd (megalin M2 fragment) [nM] | binding affinity of vitamin D metabolite to DBP, in words (DBP [1]) | Kd (DBP [1]) [nM] | also measured |
| --- | --- | --- | --- | --- |
| C=C1CC[C@H](O)C/C1=C/C=C1\CCC[C@]2(C)[C@@H]([C@H](C)/C=C/[C@H](C)C(C)(C)O)CC[C@@H]12 [25(OH)VD2, 25-hydroxyvitamin D2] | 160 | comparable to Kd of DBP-VD3 | 2.81 |  |
| C=C1CC[C@@H](O)C/C1=C/C=C1\CCC[C@]2(C)[C@@H]([C@H](C)CCCC(C)(C)O)CC[C@@H]12 [3C-epi25(OH)VD3, C3-epimer of 25-hydroxyvitamin D3] |  | bound most strongly |  | affinity of megalin M2 to DBP:metabolite complex, in words (megalin M2 fragment; labelled DBP 50 nM mixed with metabolite): very high affinity; binding affinity of vitamin D metabolite to DBP, in words (DBP [1]; listed as 3C epimer of 25(OH)D3): high binding affinity |
| 25-hydroxyvitamin D [25(OH)D] |  |  |  | affinity Ka for albumin (albumin): 600000 M⁻¹; affinity Ka for DBP (DBP [2]): 7e+08 M⁻¹ |
| C=C1CC[C@H](O)C/C1=C/C=C1\CCC[C@]2(C)[C@@H]([C@H](C)CCCC(C)(C)O)CC[C@@H]12 [25(OH)VD3, 25-hydroxyvitamin D3] | 33.7 |  | 1.88 |  |
| C=C1CC[C@H](O)C/C1=C/C=C1\CCC[C@]2(C)[C@@H]([C@H](C)CCC(O)C(C)(C)O)CC[C@@H]12 (stereo partly drawn) [24,25(OH)VD, 24,25-dihydroxyvitamin D] | 171 | slightly weaker; also recorded: marginally lower |  |  |
